Measurements reported in US20180028507A1, “3-CARBAMOYLPHENYL-4-CARBOXAMIDE AND ISOPHTALAMIDE DERIVATIVES AS INHIBITORS OF THE WNT SIGNALLING PATHWAY” (Bayer Pharma Aktiengesellschaft, priority 2015, published 2018).

Key:
[1] = tested on: constitutive active colorectal cancer cell (CRC) Wnt pathway; assay: HCT116 TOPFlash cellular reporter assay (Super TopFlash vector, luciferase); format: cell-based; conditions: Homo sapiens, HCT-116; HCT116 Super TopFlash reporter cells, 36 hours incubation, dilution series 50 μM to 15 nM, luciferase expression
Experimental: In order to discover and characterize small molecules which inhibit the constitutive active colorectal cancer cell (CRC) Wnt pathway, a cellular reporter assay was employed. The corresponding assay cell was generated by transfection of the colorectal cancer cell line HCT116 (ATCC, #CCL-247) with the Super TopFlash vector (Morin, Science 275, 1997, 1787-1790; Molenaar et al., Cell 86 (3), 1996, 391-399). The HCT116 cell line is cultivated at 37° C. and 5% CO2 in DMEM/F-12 (Life Technologies, #11320-074), supplemented with 2 mM glutamine, 20 mM HEPES, 1.4 mM pyruvate, 0.15% Na-bicarbonate and 10% foetal bovine serum (GIBCO, #10270), this cancer cell line is pathophysiological relevant since it carries a deletion of position S45 in the β-catenin gene, leading to constitutive active Wnt signaling. Stable transfectants were generated by cotransfection with pcDNA3 and selection of stable transfected cells with 1 mg/ml G418.
(§1) In preparation of the assay, the two cell lines were plated 24 hours before at 10000 cells per well of a 384 micro titre plate (MTP) in 30 μL growth medium. Selective inhibitory activity for small molecules on the mutated Wnt pathway was determined after parallel incubation of both (TOP and FOP) HCT116 reporter cell lines with a compound dilution series from 50 μM to 15 nM in steps of 3.16-fold dilutions in CAFTY buffer (130 mM NaCl, 5 mM KCl, 20 mM HEPES, 1 mM MgCl2, 5 mM NaHCO3, pH 7.4) containing 2 mM Ca^2+ and 0.01% BSA. The compounds were thereby serially prediluted in 100% DMSO and thereafter in addition 50 fold into the CAFTY compound dilution buffer (described above). From this dilution 10 μL were added to the cells in 30 μL growth medium and incubated for 36 hours at 37° C. and 5% CO2.

[2] = tested on: HCT116 cells cotransfected with the FOP control vector (non-functional TCF elements); assay: HCT116 FOPFlash control reporter assay (FOP control vector, luciferase); format: cell-based; conditions: Homo sapiens, HCT-116, 36 hours incubation, dilution series 50 μM to 15 nM, luciferase expression
Experimental: In a parallel approach, HCT116 cells were cotransfected with the FOP control vector and pcDNA3. The FOP vector is identical to the TOP construct, but it contains instead of functional TCF elements a randomized, non-functional sequence. For this transfection a stable transfected cell line was generated as well.
as §1

Row | IC50 [1] [nM] | IC50 [2] [nM] | Compound
1 | 483 | 35000 | COc1ccc(NC(=O)c2ccc(-c3ccccc3)cc2)cc1C(=O)Nc1ccncc1 [Example 1, N-[4-methoxy-3-(pyridin-4-ylcarbamoyl)phenyl]biphenyl-4-carboxamide]
2 | 495 | ≥ 50000 | COCCCNC(=O)c1cc(NC(=O)c2ccc(-c3ccccc3)cc2)ccc1OC [Example 2, N-{4-methoxy-3-[(3-methoxypropyl)carbamoyl]phenyl}biphenyl-4-carboxamide]
3 | 91.7 | 28000 | COc1ccc(NC(=O)c2ccc(-c3ccccc3)cc2)cc1C(=O)Nc1ccnc(C)c1 [Example 3, N-{4-methoxy-3-[(2-methylpyridin-4-yl)carbamoyl]phenyl}biphenyl-4-carboxamide]
4 | 815 | 12200 | COCCCN(C)C(=O)c1cc(NC(=O)c2ccc(-c3ccccc3)cc2)ccc1OC [Example 4, N-{4-methoxy-3-[(3-methoxypropyl)(methyl)carbamoyl]phenyl}biphenyl-4-carboxamide]
5 | 608 | 31000 | CCOCCCNC(=O)c1cc(NC(=O)c2ccc(-c3ccccc3)cc2)ccc1OC [Example 5, N-{3-[(3-ethoxypropyl)carbamoyl]-4-methoxyphenyl}biphenyl-4-carboxamide]
6 | 383 | 14400 | COc1ccc(NC(=O)c2ccc(-c3ccccc3)cc2)cc1C(=O)NCCCOC(C)C [Example 6, N-{3-[(3-isopropoxypropyl)carbamoyl]-4-methoxyphenyl}biphenyl-4-carboxamide]
7 | 359 | ≥ 50000 | O=C(Nc1ccc(-c2ccccc2)cc1)c1ccc(OC(F)(F)F)c(C(=O)NCc2ccccn2)c1 [Example 7, N^1-(biphenyl-4-yl)-N^3-(pyridin-2-ylmethyl)-4-(trifluoromethoxy)isophthalamide]
8 | 129 | ≥ 50000 | COc1ccc(NC(=O)c2ccc(-c3ccccc3)cc2)cc1C(=O)Nc1ccncc1F [Example 8, N-{3-[(3-fluoropyridin-4-yl)carbamoyl]-4-methoxyphenyl}biphenyl-4-carboxamide]
9 | 149 | ≥ 50000 | COc1ccc(NC(=O)c2ccc(-c3ccccc3)cc2)cc1C(=O)Nc1ccncc1Cl [Example 9, N-{3-[(3-chloropyridin-4-yl)carbamoyl]-4-methoxyphenyl}biphenyl-4-carboxamide]
10 | 600 | 10000 | Cc1cc(NC(=O)c2cc(C(=O)Nc3ccc(-c4ccccc4)cc3)ccc2OC(F)(F)F)ccn1 [Example 10, N^1-(biphenyl-4-yl)-N^3-(2-methylpyridin-4-yl)-4-(trifluoromethoxy)isophthalamide]
11 | 415 | 11500 | COc1ccc(C(=O)Nc2ccc(-c3ccccc3)cc2)cc1C(=O)Nc1ccncc1 [Example 11, N^1-(biphenyl-4-yl)-4-methoxy-N^3-(pyridin-4-yl)isophthalamide]
12 | 635 | 13500 | COc1ccc(C(=O)Nc2ccc(-c3ccccc3)cc2)cc1C(=O)Nc1ccnc(C)c1 [Example 12, N^1-(biphenyl-4-yl)-4-methoxy-N^3-(2-methylpyridin-4-yl)isophthalamide]
13 | 405 | ≥ 50000 | COc1ccc(C(=O)Nc2ccc(-c3ccccc3)cc2)cc1C(=O)Nc1ccncc1C [Example 13, N^1-(biphenyl-4-yl)-4-methoxy-N^3-(3-methylpyridin-4-yl)isophthalamide]
14 | 144 | ≥ 50000 | COc1ccc(C(=O)Nc2ccc(-c3ccccc3)cc2)cc1C(=O)Nc1ccncc1F [Example 14, N^1-(biphenyl-4-yl)-N^3-(3-fluoropyridin-4-yl)-4-methoxyisophthalamide]
15 | 900 | ≥ 50000 | COc1ccc(C(=O)Nc2ccc(-c3ccccc3)cc2)cc1C(=O)Nc1ccncc1Cl [Example 15, N^1-(biphenyl-4-yl)-N^3-(3-chloropyridin-4-yl)-4-methoxyisophthalamide]
16 | 640 | ≥ 50000 | COc1ccc(C(=O)Nc2ccc(-c3ccccc3)cc2)cc1C(=O)NCc1cccnc1 [Example 16, N^1-(biphenyl-4-yl)-4-methoxy-N^3-(pyridin-3-ylmethyl)isophthalamide]
17 | 675 | ≥ 50000 | O=C(Nc1ccc(-c2ccccc2F)nc1)c1ccc(OC(F)(F)F)c(C(=O)Nc2ccncc2)c1 [Example 17, N^1-[6-(2-fluorophenyl)pyridin-3-yl]-N^3-(pyridin-4-yl)-4-(trifluoromethoxy)isophthalamide]
18 | 950 | 18500 | O=C(Nc1ccc(-c2ccccc2F)nc1)c1ccc(OC(F)(F)F)c(C(=O)NCc2cccnc2)c1 [Example 18, N^1-[6-(2-fluorophenyl)pyridin-3-yl]-N^3-(pyridin-3-ylmethyl)-4-(trifluoromethoxy)isophthalamide]
19 | 878 | ≥ 50000 | Cc1cnccc1NC(=O)c1cc(C(=O)Nc2ccc(-c3ccccc3F)nc2)ccc1OC(F)(F)F [Example 19, N^1-[6-(2-fluorophenyl)pyridin-3-yl]-N^3-(3-methylpyridin-4-yl)-4-(trifluoromethoxy)isophthalamide]
20 | 335 | 7550 | O=C(Nc1ccc(-c2ccccc2)cc1)c1ccc(OC(F)(F)F)c(C(=O)Nc2ccncc2)c1 [Example 20, N^1-(biphenyl-4-yl)-N^3-(pyridin-4-yl)-4-(trifluoromethoxy)isophthalamide]
21 | 160 | 32500 | O=C(Nc1ccc(-c2ccccc2)cc1)c1ccc(OC(F)(F)F)c(C(=O)NCc2cccnc2)c1 [Example 21, N^1-(biphenyl-4-yl)-N^3-(pyridin-3-ylmethyl)-4-(trifluoromethoxy)isophthalamide]
22 | 375 | ≥ 50000 | O=C(Nc1ccc(-c2ccccc2)cc1)c1ccc(OC(F)(F)F)c(C(=O)Nc2ccncc2F)c1 [Example 22, N^1-(biphenyl-4-yl)-N^3-(3-fluoropyridin-4-yl)-4-(trifluoromethoxy)isophthalamide]
23 | 243 | ≥ 50000 | COc1cnccc1NC(=O)c1cc(C(=O)Nc2ccc(-c3ccccc3)cc2)ccc1OC(F)(F)F [Example 23, N^1-(biphenyl-4-yl)-N^3-(3-methoxypyridin-4-yl)-4-(trifluoromethoxy)isophthalamide]
24 | 835 | 23000 | CC(C)(C)OC(=O)Nc1ccc(CNC(=O)c2cc(C(=O)Nc3ccc(-c4ccccc4)cc3)ccc2OC(F)(F)F)cn1 [Example 24, tert-butyl [5-({[5-(biphenyl-4-ylcarbamoyl)-2-(trifluoromethoxy)benzoyl]amino}methyl)pyridin-2-yl]carbamate]
25 | 840 | ≥ 50000 | COc1ccc(C(=O)Nc2ccc(-c3ccccc3F)nc2)cc1C(=O)Nc1cccnc1C [Example 25, N^1-[6-(2-fluorophenyl)pyridin-3-yl]-4-methoxy-N^3-(2-methylpyridin-3-yl)isophthalamide]
26 | 360 | ≥ 50000 | COc1ccc(C(=O)Nc2ccc(-c3ccccc3F)nc2)cc1C(=O)Nc1ccnc(C)c1 [Example 26, N^1-[6-(2-fluorophenyl)pyridin-3-yl]-4-methoxy-N^3-(2-methylpyridin-4-yl)isophthalamide]
27 | 645 | ≥ 50000 | COc1ccc(C(=O)Nc2ccc(-c3ccccc3F)nc2)cc1C(=O)Nc1ccncc1F [Example 27, N^1-[6-(2-fluorophenyl)pyridin-3-yl]-N^3-(3-fluoropyridin-4-yl)-4-methoxyisophthalamide]
